Earlier results, collected in patent publication US20140296485A1, “ANIONIC DISPLACER MOLECULES FOR HYDROPHOBIC DISPLACEMENT CHROMATOGRAPHY” (SACHEM, INC., priority 2011, published 2014).

Details: pH-buffering compounds

| SMILES | pKa of pH buffer |
| --- | --- |
| CC(C)(CC(=O)O)CC(=O)O [3,3-dimethylglutaric acid] | 5.9 |
| O=C(O)CCC(=O)O [succinic acid] | 5.2 |
